Tested on in the first data set: not listed separately
Description: AUC in dog at 0.3 mg/kg, po. The class given is ADME, organism-based, Canis lupus familiaris. On the set-up: dose 0.3 mg/kg, route oral. The note with it: plasma.
The term AUC denotes concentration integrated over time. Higher therefore signals more exposure. Compound `CC(=O)N1CCC(CNC(=O)NC23CC4CC(CC(C4)C2)C3)CC1` gave an AUC of 0.0917 µM·h.

Turning to `O=C(O)CCCCCCCCCCCNC(=O)NC12CC3CC(CC(C3)C1)C2`, the AUC is 0.0517 µM·h.

For `O=C(NC1CCN(C(=O)C(F)(F)F)CC1)NC12CC3CC(CC(C3)C1)C2`, the AUC was 0.055 µM·h.

`CC(=O)N1CCC(NC(=O)NC23CC4CC(CC(C4)C2)C3)CC1` [AR9281] showed an AUC of 0.617 µM·h.

Consider `O=C(NC1CCN(C(=O)c2ccccn2)CC1)NC12CC3CC(CC(C3)C1)C2`, for which the exposure (AUC) was 0.0783 µM·h.

`CCC(=O)N1CCC(NC(=O)NC23CC4CC(CC(C4)C2)C3)CC1` showed an AUC of 0.108 µM·h. This AUC and that of the compound before are within 1.5-fold of each other.

For the compound `O=C(NC1CCN(C(=O)c2ccccc2)CC1)NC12CC3CC(CC(C3)C1)C2`, the AUC is 0.0102 µM·h.

Compound `O=C(NCC1CCN(C(=O)c2ccccc2)CC1)NC12CC3CC(CC(C3)C1)C2` showed an AUC of 0.0055 µM·h.

`CCCC(=O)N1CCC(NC(=O)NC23CC4CC(CC(C4)C2)C3)CC1`: the exposure (AUC) is 0.0417 µM·h.

For the next data set, the target named is T1, Bifunctional epoxide hydrolase 2 (Homo sapiens, UniProt P34913).
T1 sequence (P34913 whole entry): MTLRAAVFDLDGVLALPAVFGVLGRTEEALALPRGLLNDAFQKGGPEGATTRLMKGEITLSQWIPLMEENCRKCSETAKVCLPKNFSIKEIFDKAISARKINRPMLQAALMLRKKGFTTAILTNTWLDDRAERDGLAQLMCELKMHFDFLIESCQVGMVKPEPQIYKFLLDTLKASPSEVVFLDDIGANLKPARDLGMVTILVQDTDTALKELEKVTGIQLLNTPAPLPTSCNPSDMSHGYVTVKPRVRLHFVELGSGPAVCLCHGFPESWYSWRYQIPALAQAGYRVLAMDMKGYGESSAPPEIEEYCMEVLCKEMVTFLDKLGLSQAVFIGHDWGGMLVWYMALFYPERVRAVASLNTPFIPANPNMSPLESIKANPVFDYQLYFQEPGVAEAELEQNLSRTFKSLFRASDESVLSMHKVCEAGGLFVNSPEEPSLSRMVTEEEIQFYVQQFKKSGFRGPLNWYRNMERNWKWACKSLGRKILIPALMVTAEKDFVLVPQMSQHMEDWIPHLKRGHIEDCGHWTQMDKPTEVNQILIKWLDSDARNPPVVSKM
Conditions: not given
The IC50 is the concentration that inhibits the measured activity by half. A high value points to a need for much substance. The compound `O=C(NC1CCN(C(=O)c2cccnc2)CC1)NC12CC3CC(CC(C3)C1)C2` showed an IC50 of 1.7 nM. This lies in the single-digit nanomolar range.

Compound `O=C(NCC1CCN(C(=O)c2ccccc2C(=O)O)CC1)NC12CC3CC(CC(C3)C1)C2` showed an IC50 of 400 nM.

In turn, `O=C(NC1CCN(C(=O)c2ccncc2)CC1)NC12CC3CC(CC(C3)C1)C2` had an IC50 of 2.1 nM. This IC50 lies about 190-fold lower than the previous one.

`O=C(NCC1CCN(C(=O)c2ccncc2)CC1)NC12CC3CC(CC(C3)C1)C2` returned a half-inhibitory concentration (IC50) of 7.3 nM.

`O=C(NCC1CCN(C(=O)c2cccc(C(=O)O)c2)CC1)NC12CC3CC(CC(C3)C1)C2` showed an IC50 of 43 nM.

`O=C(O)CCCC(=O)N1CCC(CNC(=O)NC23CC4CC(CC(C4)C2)C3)CC1` returned an IC50 of 41 nM.

For `O=C(NCC1CCN(C(=O)c2cccnc2)CC1)NC12CC3CC(CC(C3)C1)C2`, the IC50 was 5.4 nM. This IC50 is about 7.6-fold lower than that of the compound before.
